In one series the test system is Canine platelets. The series can be described thus: Platelet cell viability assay (platelet-rich plasma, Cell Titer Glo). Type of series: cell-based. The note with it: Canis lupus familiaris, 5 h, isolated canine platelets ex vivo, five hours at 37° C. An outline of the steps:
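Isolated canine platelets were incubated ex vivo with a range of compound concentrations. After 20 min equilibration at room temperature, viability was measured by Cell Titer Glo luminescence.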
In general terms: In ATP-based viability assays light output follows the ATP content of the culture.

Another series relates to FL5.12/Bcl-2 cells. Put plainly: FL5.12/Bcl-2 cell viability assay under IL-3 withdrawal (CellTitre Glo). The format is cell-based, murine. The note with it: Mus musculus, IL-3 withdrawn 48 hrs, then 24 hrs with compound. An outline of the steps:
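Bcl-2-overexpressing murine FL5.12 transfectants underwent IL-3 removal for 48 hrs before a 24 hr compound treatment. Cell viability was quantified with CellTitre Glo.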

Series [1] concerns circulating platelets. Conditions: following injection into C57BL/6 mice; cited from earlier work.
For series [2], the system named is circulating platelets. Conditions: following injection in beagle canines; cited from earlier work.
A further series concerns the target GST-Bcl-2 (Homo sapiens, UniProt P10415). Put plainly: TR-FRET binding assay, GST-Bcl-2 with F-Bak peptide probe. The note with it: TR-FRET Binding Affinity, GST-Bcl-2, F-Bak peptide probe. An outline of the steps:
(§1)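 Displacement of a fluorescein-labelled Bak peptide from the GST-tagged protein was followed by time-resolved FRET with a terbium anti-GST donor after 3 h incubation at room temperature. Inhibition constants were calculated with Wang's equation.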
(In TR-FRET formats the signal depends on donor and acceptor labels being close together.)

The target of another series is GST-Bcl-XL (Homo sapiens, UniProt Q07817). The series can be described thus: TR-FRET binding assay, GST-Bcl-XL with F-Bak peptide probe. The note with it: TR-FRET Binding Affinity, GST-Bcl-XL, F-Bak peptide probe. An outline of the steps:
as §1

Molecules are shown by their SMILES. Like-named read-outs stand apart in the source and are kept apart here.

The source of these data is patent US9073855B2, “BCL-2 selective apoptosis-inducing agents for the treatment of cancer and immune diseases” (AbbVie Inc., priority 2008, dated 2015).

Sequence of GST-Bcl-XL (Q07817 whole entry): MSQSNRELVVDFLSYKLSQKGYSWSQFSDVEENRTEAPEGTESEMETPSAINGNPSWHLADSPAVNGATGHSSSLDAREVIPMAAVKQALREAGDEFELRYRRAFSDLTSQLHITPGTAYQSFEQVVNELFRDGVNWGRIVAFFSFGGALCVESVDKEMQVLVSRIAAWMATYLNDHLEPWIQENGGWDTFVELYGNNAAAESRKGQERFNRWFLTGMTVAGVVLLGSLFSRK
Sequence of GST-Bcl-2 (P10415 whole entry): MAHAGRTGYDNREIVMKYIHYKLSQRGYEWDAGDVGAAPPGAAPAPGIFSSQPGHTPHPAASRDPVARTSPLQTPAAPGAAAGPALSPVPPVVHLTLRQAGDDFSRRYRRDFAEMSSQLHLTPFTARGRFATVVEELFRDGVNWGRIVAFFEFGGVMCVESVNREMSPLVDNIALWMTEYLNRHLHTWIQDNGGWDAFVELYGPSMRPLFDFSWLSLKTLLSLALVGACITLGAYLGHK

For the compound `CN(C)CC[C@H](CSc1ccccc1)Nc1ccc(S(=O)(=O)NC(=O)c2ccc(N3CCN(Cc4ccccc4-c4ccc(Cl)cc4)CC3)cc2)cc1[N+](=O)[O-]` [ABT-737, 4-(4-((4′-chloro-1,1′-biphenyl-2-yl)methyl)piperazin-1-yl)-N-((4-(((1R)-3-(dimethylamino)-1-((phenylthio)methyl)propyl)amino)-3-nitrophenyl)sulfonyl)benzamide, reference compound], the figures for the EC50 in the series on Canine platelets and in the series on FL5.12/Bcl-2 cells were 282 nM and 25 nM, respectively. Besides, the “effect on circulating platelets” value is on record as “rapid, concentration dependant decrease in circulating platelets” with circulating platelets [1] and “rapid, concentration dependant decrease in circulating platelets” with circulating platelets [2].
Turning to `CN(C)CCCNc1ccc(S(=O)(=O)NC(=O)c2ccc(N3CCN(CC4=C(c5ccc(Cl)cc5)CC(C)(C)CC4)CC3)cc2Oc2ccc3[nH]ccc3c2)cc1C(F)(F)F` [Example 171, 4-(4-{[2-(4-chlorophenyl)-4,4-dimethylcyclohex-1-en-1-yl]methyl}piperazin-1-yl)-N-{[4-{[3-(dimethylamino)propyl]amino}-3-(trifluoromethyl)phenyl]sulfonyl}-2-(1H-indol-5-yloxy)benzamide], the Ki came out at 2.94 nM at GST-Bcl-2 and 52.1 nM on GST-Bcl-XL. Further, the EC50 was greater than 50000 nM in the series with Canine platelets and 276 nM in the series with FL5.12/Bcl-2 cells.
The corresponding values for `CN(C)CCCNc1ccc(S(=O)(=O)NC(=O)c2ccc(N3CCN(CC4=C(c5ccc(Cl)cc5)CC(C)(C)CC4)CC3)cc2Oc2ccc3[nH]ccc3c2)cc1C#N` [Example 172, 4-(4-{[2-(4-chlorophenyl)-4,4-dimethylcyclohex-1-en-1-yl]methyl}piperazin-1-yl)-N-[(3-cyano-4-{[3-(dimethylamino)propyl]amino}phenyl)sulfonyl]-2-(1H-indol-5-yloxy)benzamide] are 2.05 nM, 65.7 nM, greater than 50000 nM and 194 nM.
The corresponding values for `CC1(C)CCC(CN2CCN(c3ccc(C(=O)NS(=O)(=O)c4ccc(NC5CCN(C6CCOCC6)CC5)c([N+](=O)[O-])c4)c(Oc4ccc5[nH]ccc5c4)c3)CC2)=C(c2ccc(Cl)cc2)C1` [Example 173, 4-(4-{[2-(4-chlorophenyl)-4,4-dimethylcyclohex-1-en-1-yl]methyl}piperazin-1-yl)-2-(1H-indol-5-yloxy)-N-({3-nitro-4-[(1-tetrahydro-2H-pyran-4-ylpiperidin-4-yl)amino]phenyl}sulfonyl)benzamide] are 0.108 nM, 22.1 nM, greater than 50000 nM and 11 nM.
The corresponding values for `CN1CCN(Nc2ccc(S(=O)(=O)NC(=O)c3ccc(N4CCN(CC5=C(c6ccc(Cl)cc6)CC(C)(C)CC5)CC4)cc3Oc3ccc4[nH]ccc4c3)cc2[N+](=O)[O-])CC1` [Example 174, 4-(4-{[2-(4-chlorophenyl)-4,4-dimethylcyclohex-1-en-1-yl]methyl}piperazin-1-yl)-2-(1H-indol-5-yloxy)-N-({4-[(4-methylpiperazin-1-yl)amino]-3-nitrophenyl}sulfonyl)benzamide] are 0.105 nM, 62.1 nM, 19500 nM and 11 nM.

Usually EC50 stands for the midpoint of the concentration-response curve. The term Ki denotes a dissociation constant, usually derived from enzyme kinetics or from competition with a known ligand. Read a low Ki as higher affinity.
